Data taken from patent US9115061B2, “Naphthalene-based inhibitors of anti-apoptotic proteins” (BURNHAM INSTITUTE FOR MEDICAL RESEARCH, priority 2007, dated 2015).
pIC50: −log10 of the molar value.

Legend:
[1] = system: Balb/c mice; assay: Oral toxicity study in normal Balb/c mice; assay type: in vivo, mouse; conditions: […] oral, three weeks
Method: Compounds or vehicle control were dosed 15 times over 3 weeks, giving compounds daily for 5 consecutive days (Monday-Friday), resting on weekends.
Both compounds were provided by NCI-DTP (RAID-program). Compounds were dissolved in 100% sesame oil just before oral administration. Vehicle-control consisted of corresponding concentration of ascorbic acid suspended in 100% sesame oil.
Spleens were removed and weighed.
Whole blood (250 μl) was collected in EDTA-coated glass tubes (purple top; MICROTAINER Brand Tube with EDTA, Catalogue #365973, Becton, Dickinson and Company, New Jersey 07417-1885) via either cardiac puncture or severing the brachial artery of anesthetized mice. After thorough mixing, specimens were analyzed using a VetScan HM2 (Abaxis Inc., Union City, Calif. 94587) hematology analyzer, measuring white blood cell count (WBC), red blood cell count (RBC), platelet (PLT) count, leukocyte differential (including % lymphocyte, % monocyte and % granulocyte), hematocrit (Ht), and hemoglobin (Hb).
(Eppendorf Centrifuge 5415C) for 2 minutes to separate serum from cells and fibrin clot. The resulting serum specimens were analyzed using an automated blood chemistry analyzer (“COBAS MIRA Classic”; Roche, Indianapolis, Ind. 46250-0414) to measure alanine aminotransferase (ALT) and aspartate aminotransferase AST), blood urea nitrogen (BUN), and […].
Stomach and intestines were examined also imaged by ultrasound for evidence of dilation, an indication of GI toxicity. Briefly, mice were anesthetized using a mixture of isofluorane (5%) and oxygen gas (95%), restrained on a heated table using Aquagel Lubrication Gel (Parker Laboratories, Inc., Fairfield, N.J. 07004), and abdominal hair was removed with a chemical depilation agent (Nair™ Hair Removal, Church & Dwight Co., Inc., Princeton, N.J. 08543). Aquasonic 100 Ultrasound Transmission Gel (Parker Laboratories, Inc., Fairfield, N.J. 07004) was applied to the abdomen prior to imaging using a high-frequency probe to assess gas and intestinal distention.
Immediately after ultrasound imaging, electrocardiogram (ECG) analysis of anesthetized mice was performed using a MP150 Biopack System.

[2] = system: murine B-cells from BCL-2 transgenic mice; assay: Viability of cultured splenocytes, Annexin V-FITC/PI; assay type: cell-based; conditions: 18 hours; read-out: IC50, induction of apoptosis in cultured B-cells of BCL-2 transgenic mouse
Method: Spleens were excised from sacrificed mice and cell suspensions treated with a mouse erythrocyte lysing kit (R & D Systems). Total splenocyte count was determined by typan blue dye exclusion assays using hemocytometers. The percentage of B-lymphocytes was determined by fluorescence activated cell sorter (FACS) analysis SACS-CANTO, Bectin-Dickinson Inc., Mountain View, Calif.) following staining cells with Phyco-Erytrin (PE)-conjugated anti-CD19 or -B220 antibodies (Becton Dickinson, San Jose, Calif. 95131).
After 18 hours of incubation, % viability of splenocytes was determined by FACSort after staining cells by the use of an Annexin V-FITC/PI Apoptosis Detection kit (BioVision Inc.). Viable cells were defined by Annexin V-negative, PI-negative cells.

[3] = target: BIR3 domain of XIAP (Homo sapiens (Human), UniProt P98170); assay: Reactivity test by [15N,1H]-correlation NMR; conditions: 1 mM gossypol, 200 μM BIR3, two hours
Chain of BIR3 domain of XIAP (P98170 241-356): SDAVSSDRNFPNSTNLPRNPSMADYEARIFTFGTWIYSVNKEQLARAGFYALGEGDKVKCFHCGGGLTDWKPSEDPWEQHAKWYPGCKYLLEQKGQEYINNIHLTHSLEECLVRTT
Method: Pure polyphenols were obtained from SIGMA (gossypol and purpurogallin) and/or from Microsource Discovery Systems (Purpurogallin derivatives). Reference compounds were obtained from Chembridge Corp. (San Diego). Gossypol was tested as a racemic mixture of (+) and (−) isomers. Compounds were dissolved in DMSO at 100 mM concentration and stored at −20 DC. NMR analysis was periodically performed on the compounds as a quality control, prior to further dilution for binding and displacement assays.

[4] = orally 0.06 mmol/kg daily for up to 21 days; cited from earlier work

For Cc1cc2c(C(C)C)c(O)c(O)c(C=O)c2c(O)c1-c1c(C)cc2c(C(C)C)c(O)c(O)c(C=O)c2c1O [Gossypol, gossypol], the “general condition of mice” value [1] was “lethagic with scruffy hair”, the pIC50 [2] was ~5.00 and the “reactivity with 15N-labeled BIR3, spectrum versus apo-Bir3” value [3] was “No appreciable differences”. The anti-tumor activity [4] was “show anti-tumor activity” and the lethality [4] was “non-lethal”.
